“And” between values parts separate entries of the source, which are not always exact repeats. Equal entries are not always repeated. Where two headings read alike, the source gives them in different places.
Experiments:
[1] = tested on: E. coli TOP10 pCR2.1-(PNDM-1-blaNDM-1-bleMBL); experiment: Preliminary MIC of imipenem with DMPS, broth microdilution; type: cell-based; conditions: MIC values of imipenem; 0 to 30 mM of DMPS; zinc-complemented M9CA medium; data not shown
[2] = in vivo, cited from earlier work
[3] = biological target: IMP-1 (Serratia marcescens, UniProt P52699); experiment: biochemical
[4] = biological target: NDM-1 (Klebsiella pneumoniae, UniProt C7C422); experiment: biochemical
[5] = biological target: VIM-1 (Pseudomonas aeruginosa, UniProt A0A0F7KYQ8); experiment: biochemical
[6] = biological target: NDM-4 (Escherichia coli, UniProt H6WZS9); experiment: In-vitro inhibition of purified metallo-ß-lactamase, UV spectrophotometry
[7] = biological target: KPC-3 (Klebsiella pneumoniae, UniProt Q9F663, H272Y); experiment: In-vitro inhibition of purified enzyme, non-metallo-enzyme negative control
[8] = tested on: A. baumannii IMP-4; experiment: MIC of carbapenems with or without DMPS; type: cell-based; conditions: Acinetobacter baumannii, IMP4, carbapenem without DMPS, Zn 5mg/L
Procedure: (§1) DMPS was evaluated as inhibitor of MBLs using a panel of strains producing the most clinically significant carbapenemases of the metallo-enzyme group. Minimum inhibitory concentrations (MICs) of carbapenems were determined in-vitro with strains (reference and clinical) producing main types of class B carbapenemases which are IMP, VIM, NDM, GIM and SPM with or without DMPS at various concentrations. […] The studied strains were clinical isolates (to mirror multidrug resistance in clinical isolates) for which a precise ß-lactamase gene content is known (Table 1). The strains were NDM, VIM-, IMP, SPM and GIM and producers as well as control of a non-MBL producer (OXA-48). The selected concentration of DMPS was 1-fold, […] and 30-fold (3 mM) that of the human peak serum concentration after a single IV dose of DMPS (Aposhian,1983).
(§2) A 100 mM DMPS stock solution (Sigma Aldrich, France) (pH 5.0) was prepared in 0.2 M NaOH as recommended (Maiorino et al. 1990) and pH was neutralized to pH 7.0 with NaHCO3 Na2Ca-EDTA (Sigma Aldrich, France) dissolved in water.

[9] = tested on: A. baumannii NDM-1; experiment: MIC of carbapenems with or without DMPS; type: cell-based
Procedure: as §1, §2

[10] = tested on: C. freundii VIM-2; experiment: MIC of carbapenems with or without DMPS; type: cell-based; conditions: Zn 5mg/L
Procedure: as §1, §2

[11] = tested on: E. cloacae GIM-1; experiment: MIC of carbapenems with or without DMPS; type: cell-based; conditions: Zn 5mg/L
Procedure: as §1, §2

[12] = tested on: E. coli NDM-1; experiment: MIC of carbapenems with or without DMPS; type: cell-based; conditions: Zn 5mg/L
Procedure: as §1, §2

[13] = tested on: E. coli NDM-4; experiment: MIC of carbapenems with or without DMPS; type: cell-based; conditions: Zn 5mg/L
Procedure: as §1, §2

[14] = tested on: E. coli NDM-5; experiment: MIC of carbapenems with or without DMPS; type: cell-based; conditions: Zn 5mg/L
Procedure: as §1, §2

[15] = tested on: K. pneumoniae IMP-4; experiment: MIC of carbapenems with or without DMPS; type: cell-based; conditions: Zn 5mg/L
Procedure: as §1, §2

[16] = tested on: K. pneumoniae IMP-8; experiment: MIC of carbapenems with or without DMPS; type: cell-based; conditions: Zn 5mg/L
Procedure: as §1, §2

[17] = tested on: K. pneumoniae NDM-1; experiment: MIC of carbapenems with or without DMPS; type: cell-based; conditions: Zn 5mg/L
Procedure: as §1, §2

[18] = tested on: K. pneumoniae VIM-4; experiment: MIC of carbapenems with or without DMPS; type: cell-based; conditions: Zn 5mg/L
Procedure: as §1, §2

[19] = tested on: P. aeruginosa GIM-1; experiment: MIC of carbapenems with or without DMPS; type: cell-based; conditions: Zn 5mg/L
Procedure: as §1, §2

[20] = tested on: P. aeruginosa IMP-13; experiment: MIC of carbapenems with or without DMPS; type: cell-based
Procedure: as §1, §2

[21] = tested on: P. aeruginosa NDM1; experiment: MIC of carbapenems with or without DMPS; type: cell-based; conditions: carbapenem without DMPS, Zn 5mg/L
Procedure: as §1, §2

[22] = tested on: P. aeruginosa SPM1; experiment: MIC of carbapenems with or without DMPS; type: cell-based; conditions: Pseudomonas aeruginosa, carbapenem without DMPS, Zn 5mg/L
Procedure: as §1, §2

[23] = tested on: P. aeruginosa VIM-1; experiment: MIC of carbapenems with or without DMPS; type: cell-based
Procedure: as §1, §2

[24] = tested on: P. aeruginosa VIM-2; experiment: MIC of carbapenems with or without DMPS; type: cell-based; conditions: Zn 5mg/L
Procedure: as §1, §2

[25] = tested on: P. putida VIM-2; experiment: MIC of carbapenems with or without DMPS; type: cell-based; conditions: Pseudomonas putida, VIM2
Procedure: as §1, §2

[26] = tested on: K. pneumoniae OXA-48; experiment: MIC of carbapenems with or without DMPS (non-MBL control); type: cell-based; conditions: K. pneumoniae OXA-48 (control), carbapenem without DMPS, Zn 5mg/L
Procedure: as §1, §2

## O=S(=O)([O-])CC(S)CS.[Na+] (racemic) [DMPS]
[1]
  maximal inhibition efficiency (DMPS concentration): 50 mM
[2]; iv
  serum concentration: ca. 110 µM
[2]
  elimination: mostly eliminated by urines
[3]
  IC50: 70 µM
[4]
  IC50: 80 µM
[5]
  IC50: 180 µM
[6]
  IC50: 110 µM
[7]
  IC50: > 10000 µM

## C[C@@H](O)[C@H]1C(=O)N2C(C(=O)O)=C(SCCN=CN)C[C@H]12 [IPM, imipenem]
[8]
  MIC: 64 µg/mL
[9]; Acinetobacter baumannii, NDM1
  MIC: 128 µg/mL
[10]; Citrobacter freundii, VIM2, carbapenem without DMPS, read-out: MIC
  MIC: 2 µg/mL
[11]; Enterobacter cloacae, GIM1, carbapenem without DMPS, read-out: MIC
  MIC: 8 µg/mL
[12]; Escherichia coli, NDM1, carbapenem without DMPS, read-out: MIC
  MIC: 8 µg/mL
[13]; Escherichia coli, NDM4, carbapenem without DMPS, read-out: MIC
  MIC: 64 µg/mL
[14]; Escherichia coli, NDM5, carbapenem without DMPS, read-out: MIC
  MIC: 64 µg/mL
[15]; Klebsiella pneumoniae, IMP4, carbapenem without DMPS, read-out: MIC
  MIC: 16 µg/mL
[16]; Klebsiella pneumoniae, IMP8, carbapenem without DMPS, read-out: MIC
  MIC: 8 µg/mL
[17]; Klebsiella pneumoniae, NDM1, carbapenem without DMPS, read-out: MIC
  MIC: 64 µg/mL
[18]; Klebsiella pneumoniae, VIM4, carbapenem without DMPS, read-out: MIC
  MIC: 64 µg/mL
[19]; Pseudomonas aeruginosa, GIM1, carbapenem without DMPS, read-out: MIC
  MIC: > 1020 µg/mL
[20]; Pseudomonas aeruginosa, IMP13
  MIC: 128 µg/mL
[21]; Pseudomonas aeruginosa, read-out: MIC
  MIC: 1020 µg/mL
[22]
  MIC: 1020 µg/mL
[23]; Pseudomonas aeruginosa, VIM1
  MIC: 128 µg/mL
[24]; Pseudomonas aeruginosa, VIM2, carbapenem without DMPS, read-out: MIC
  MIC: 1020 µg/mL
[25]
  MIC: 128 µg/mL
[26]; Klebsiella pneumoniae, OXA48, read-out: MIC
  MIC: 32 µg/mL

## C[C@@H](O)[C@H]1C(=O)N2C(C(=O)O)=C(S[C@@H]3CN[C@H](C(=O)N(C)C)C3)[C@H](C)[C@H]12 [MEM, meropenem]
[9]; A. baumannii NDM-1, carbapenem without DMPS, Zn 5mg/L
  MIC: 256 µg/mL
[10]; carbapenem without DMPS
  MIC: 0.06 µg/mL
[11]; carbapenem without DMPS
  MIC: 16 µg/mL
[12]; carbapenem without DMPS
  MIC: 32 µg/mL and 16 µg/mL
[13]; carbapenem without DMPS
  MIC: 64 µg/mL
[14]; carbapenem without DMPS
  MIC: 64 µg/mL
[15]; carbapenem without DMPS
  MIC: 16 µg/mL
[16]; carbapenem without DMPS
  MIC: 2 µg/mL
[17]; carbapenem without DMPS
  MIC: 64 µg/mL
[18]; carbapenem without DMPS
  MIC: 32 µg/mL
[19]; carbapenem without DMPS
  MIC: 1,024 µg/ml
[20]; P. aeruginosa IMP-13, carbapenem without DMPS, Zn 5mg/L
  MIC: 64 µg/mL
[21]
  MIC: 256 µg/mL
[23]; P. aeruginosa VIM-1, carbapenem without DMPS, Zn 5mg/L
  MIC: 256 µg/mL
[24]; carbapenem without DMPS
  MIC: 1,024 µg/ml
[26]
  MIC: 32 µg/mL

Reference: EP3020415A1, “Thiol compounds for use in bacterial infections” (Université de Fribourg, priority 2014, dated 2016)
